Here are results for eleven compounds from patent publication US12612410B2 (CHILDREN'S HOSPITAL MEDICAL CENTER, priority 2020, dated 2026).

The term Kd denotes the free concentration of one partner at which half of the binding sites on the other are occupied at equilibrium, for simple one-to-one binding. A higher Kd goes with a looser complex.

Structures are written as SMILES.

In the experiment the target is T1, FLT3 D835H (Homo sapiens, UniProt P36888, D835H).
T1 construct: host or cells: E. coli BL21-derived host (T7 phage) or HEK-293
T1 sequence (P36888 27-993 D835H): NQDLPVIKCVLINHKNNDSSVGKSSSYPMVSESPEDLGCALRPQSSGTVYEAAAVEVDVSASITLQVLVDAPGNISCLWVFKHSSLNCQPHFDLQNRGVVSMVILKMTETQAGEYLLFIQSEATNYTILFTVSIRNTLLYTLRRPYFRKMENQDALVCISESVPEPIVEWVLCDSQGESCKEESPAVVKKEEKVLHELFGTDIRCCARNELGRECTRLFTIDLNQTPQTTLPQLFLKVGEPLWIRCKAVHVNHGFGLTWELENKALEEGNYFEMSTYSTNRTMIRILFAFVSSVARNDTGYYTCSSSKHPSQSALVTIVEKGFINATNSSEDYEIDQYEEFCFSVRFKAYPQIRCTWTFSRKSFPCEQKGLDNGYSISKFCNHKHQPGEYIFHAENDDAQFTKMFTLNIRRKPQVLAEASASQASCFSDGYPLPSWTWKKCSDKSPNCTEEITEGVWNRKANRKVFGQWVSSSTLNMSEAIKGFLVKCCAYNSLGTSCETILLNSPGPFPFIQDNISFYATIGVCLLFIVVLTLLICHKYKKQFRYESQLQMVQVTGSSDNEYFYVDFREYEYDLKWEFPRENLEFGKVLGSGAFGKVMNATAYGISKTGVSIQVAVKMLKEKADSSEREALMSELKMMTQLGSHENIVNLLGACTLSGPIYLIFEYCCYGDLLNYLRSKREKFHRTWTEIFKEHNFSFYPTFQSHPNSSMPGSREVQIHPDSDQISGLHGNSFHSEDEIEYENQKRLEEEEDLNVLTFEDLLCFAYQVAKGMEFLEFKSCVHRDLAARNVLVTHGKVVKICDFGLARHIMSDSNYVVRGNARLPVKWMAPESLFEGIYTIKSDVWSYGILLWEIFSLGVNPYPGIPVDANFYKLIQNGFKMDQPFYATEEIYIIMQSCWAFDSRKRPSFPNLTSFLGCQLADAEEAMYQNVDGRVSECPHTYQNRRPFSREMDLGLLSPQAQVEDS
Nature of the experiment: DiscoverX KINOMEscan competition binding, FLT3 D835H. The source says: Kinase binding data were obtained for various exemplary compounds prepared according to Examples 1-24 using the DiscoverX KINOMVIEscan® active site-directed competition binding site-directed assay protocol described below. […] As a result, the data report thermodynamic interaction affinities (Kd values), rather than IC50 values that are dependent on ATP concentrations. The assay uses a DNA-tagged version of the protein kinase, and an immobilized ligand bound to a solid support. Compounds that directly or indirectly prevent kinase binding to the immobilized ligand reduce the amount of kinase captured on the solid support, which is detected using an ultra-sensitive qPCR method. Affinity constants reported from the assay have been reported to be independent of the immobilized ligand used that is coupled to the solid support (See supplemental information in Fabian, M. A. et. al., (2005) Nat. Biotechnol. 23, 329-336; Wodicka, L. M. et. al., (2010) Chem. Biol. 17, 1241-1249.)
Kinase-tagged T7 phage strains were prepared in an E. coli host derived from the BL21 strain. E. coli were grown to log-phase and infected with T7 phage and incubated with shaking at 32° C. until lysis. The lysates were centrifuged and filtered to remove cell debris. The remaining kinases were produced in HEK-293 cells and subsequently tagged with DNA for qPCR detection. Streptavidin-coated magnetic beads were treated with biotinylated small molecule ligands for 30 minutes at room temperature to generate affinity resins for kinase assays. The liganded beads were blocked with excess biotin and washed with blocking buffer (SeaBlock (Pierce), 1% BSA, 0.05% Tween 20, 1 mM DTT) to remove unbound ligand and to reduce non-specific binding. Binding reactions were assembled by combining kinases, liganded affinity beads, and test compounds in 1× binding buffer (20% SeaBlock, 0.17×PBS, 0.05% Tween 20, 6 mM DTT). Test compounds were prepared as 111× stocks in 100% DMSO. Kds were determined using an 11-point 3-fold compound dilution series with three DMSO control points. All compounds for Kd measurements are distributed by acoustic transfer (non-contact dispensing) in 100% DMSO. The compounds were then diluted directly into the assays such that the final concentration of DMSO was 0.9%. All reactions were performed in polypropylene 384-well plates. Each was a final volume of 0.02 mL. The assay plates were incubated at room temperature with shaking for 1 hour and the affinity beads were washed with wash buffer (1×PBS, 0.05% Tween 20). The beads were then re-suspended in elution buffer (1×PBS, 0.05% Tween 20, 0.5 μM nonbiotinylated affinity ligand) and incubated at room temperature with shaking for 30 minutes. The kinase concentration in the eluates was measured by qPCR.
Binding constants (Kds) were calculated with a standard dose-response curve using the Hill equation. The Hill Slope was set to −1. Curves were fitted using a non-linear least square fit with the Levenberg-Marquardt algorithm.
The compound `CC1(c2cn3c(-c4cccc(N[C@H]5CNC[C@@H]5F)n4)cnc3cn2)CC1` [Compound 1, N-((3S,4S)-4-fluoropyrrolidin-3-yl)-6-(6-(1-methylcyclopropyl)imidazo[1,2-a]pyrazin-3-yl)pyridin-2-amine] yielded a dissociation constant Kd of 0.066 nM.

For `CC1(c2cn3c(-c4cccc(N[C@@H]5CCNC5)n4)cnc3cn2)CC1` [Compound 3, (R)-6-(6-(1-methylcyclopropyl)imidazo[1,2-a]pyrazin-3-yl)-N-(pyrrolidin-3-yl)pyridin-2-amine], binding was characterised by a dissociation constant (Kd) of 0.059 nM.

Take `CC1(c2cn3c(-c4cccc(N[C@H]5CNCC56CC6)n4)cnc3cn2)CC1` [Compound 5, (R)-N-(6-(6-(1-methylcyclopropyl)imidazo[1,2-a]pyrazin-3-yl)pyridin-2-yl)-5-azaspiro[2.4]heptan-7-amine]: the affinity, expressed as Kd, was 0.063 nM.

With `FC(F)(F)C1(c2cn3c(-c4cccc(N[C@@H]5CCNC5)n4)cnc3cn2)CC1` [Compound 10, (R)-N-(pyrrolidin-3-yl)-6-(6-(1-(trifluoromethyl)cyclopropyl)imidazo[1,2-a]pyrazin-3-yl)pyridin-2-amine], the Kd was 0.082 nM.

In the case of `FC(F)c1cn2c(-c3cccc(N[C@H]4CNC[C@@H]4F)n3)cnc2cn1` [Compound 16, 6-(6-(difluoromethyl)imidazo[1,2-a]pyrazin-3-yl)-N-((3S,4S)-4-fluoropyrrolidin-3-yl)pyridin-2-amine], the affinity, expressed as Kd, was 0.2 nM.

As to `FC(F)c1cn2c(-c3cccc(N[C@H]4CNCC[C@@H]4F)n3)cnc2cn1` [Compound 25, 6-(6-(difluoromethyl)imidazo[1,2-a]pyrazin-3-yl)-N-((3S,4S)-4-fluoropiperidin-3-yl)pyridin-2-amine], the Kd amounted to 0.18 nM.

Compound `CC(C)(O)c1cn2c(-c3cccc(N[C@@H]4CCCNC4)n3)cnc2cn1` [Compound 30, (R)-2-(3-(6-(piperidin-3-ylamino)pyridin-2-yl)imidazo[1,2-a]pyrazin-6-yl)propan-2-ol] registered a Kd of 1.2 nM.

`CC(C)(O)c1cn2c(-c3cccc(N[C@H]4CNCC[C@@H]4F)n3)cnc2cn1` [Compound 31, 2-(3-(6-(((3S,4S)-4-fluoropiperidin-3-yl)amino)pyridin-2-yl)imidazo[1,2-a]pyrazin-6-yl)propan-2-ol] gave a Kd of 0.43 nM.

Take `FC(F)(F)COc1cn2c(-c3cccc(N[C@@H]4CCNC4)n3)cnc2cn1` [Compound 38, (R)-N-(pyrrolidin-3-yl)-6-(6-(2,2,2-trifluoroethoxy)imidazo[1,2-a]pyrazin-3-yl)pyridin-2-amine]: the affinity, expressed as Kd, was 0.24 nM.

The compound `F[C@H]1CNC[C@@H]1Nc1cccc(-c2cnc3cnc(C4CC4)cn23)n1` [Compound 50, 6-(6-cyclopropylimidazo[1,2-a]pyrazin-3-yl)-N-((3S,4S)-4-fluoropyrrolidin-3-yl)pyridin-2-amine] returned a Kd of 0.032 nM.

Take `Cn1cc(-c2cn3c(-c4cccc(N[C@H]5CNC[C@@H]5F)n4)cnc3cn2)cn1` [Compound 52, N-((3S,4S)-4-fluoropyrrolidin-3-yl)-6-(6-(1-methyl-1H-pyrazol-4-yl)imidazo[1,2-a]pyrazin-3-yl)pyridin-2-amine]: the Kd is 0.078 nM.
